This note sets out measurements from PubChem BioAssay AID2305 (GlaxoSmithKline (GSK), 2010).

The assay has as its system P. falciparum 3D7 growth, pLDH absorbance. The experiment in a line: P. falciparum 3D7 growth inhibition, dose response, strain 3D7 (AID 2305).

In turn, `CC(C)(C)c1ccc(CNCC(C)(C)c2nc(-c3ccc(Cl)c(O)c3)c(-c3ccnc(N)n3)[nH]2)cc1` yielded an IC50 of 700 nM. This lies in the sub-micromolar range.

`Nc1ccc(-c2ccc3ccnc(N)c3c2)cn1` returned a concentration for half-maximal inhibition (IC50) of 350 nM.

`CCOc1ccc2nc(C)cc(NN=Cc3ccncc3)c2c1` displayed a half-maximal inhibitory concentration (IC50) of 990 nM.

Consider `CN1CCC(N2CCN(c3ccc4c(=O)nc(CCc5cccc(F)c5F)n(CC(=O)N(C)Cc5ccc(-c6ccc(C(F)(F)F)cc6)cc5)c4n3)CC2)CC1`, for which the IC50 was 720 nM.

The molecule `O=C(/C=C/c1ccc(F)c(C(F)(F)F)c1)N1CCC(CN2CCC(c3c[nH]c4ccccc34)CC2)CC1` yielded an IC50 of 920 nM.

`Cc1cccc2[nH]c(-c3ccc(-c4cccc(CNCCc5ccncc5)c4)s3)nc12`: the IC50 was 140 nM.

`COc1ccc(NC(=O)[C@H](CC(C)C)Nc2cc(C)nc(Nc3ccccc3)n2)cc1` gave an IC50 of 870 nM.

`CC(Oc1cc(-n2cnc3ccc(NC(=O)CCN4CCCCC4)cc32)sc1C(N)=O)c1ccccc1Cl` (configuration not stated) showed an IC50 of 400 nM.

In turn, `O=C(CCc1cccnc1)Nc1cccc(-c2ccc(-c3nc4ccc(C(F)(F)F)cc4[nH]3)s2)c1` gave an IC50 of 950 nM.

Molecule `COc1ccc(Nc2ncc3c(-c4cccc(NC(=O)Cc5ccc(F)cc5)c4)c[nH]c3n2)cc1OC` came in with an IC50 of 590 nM.

`Cc1cccc2[nH]c(-c3cccc(-c4ccc(NC(=O)c5ccc(=O)[nH]n5)cc4)c3)nc12` gave an IC50 of 860 nM.

On to `COc1cccc(NC(=O)c2ccc(NCCCN3CCC(C)CC3)c([N+](=O)[O-])c2)c1`, for which the IC50 was 770 nM.

`CNC(=O)c1cc(F)c(F)cc1Nc1nc(Nc2cccc(CS(C)(=O)=O)c2)ncc1Cl` yielded an IC50 of 1020 nM.

Regarding `O=C(NC1CCCCN(Cc2ccccc2O)C1)c1cccc(C(F)(F)F)c1` (configuration not stated), the IC50 came to 790 nM.

As for `CC(C)Sc1nc2c(c(=O)n1Cc1ccco1)C1(CCCCC1)Cc1ccccc1-2`, the IC50 is 250 nM.

In turn, `CCC1(CC)CN(c2ccccc2)c2ccc(O)cc2S(=O)(=O)C1CC(C)C` (configuration not stated) came in with an IC50 of 400 nM.

Molecule `CC(C)CNCc1cccc(-c2ccc(CNc3ccc(C(=O)c4ccccc4)cc3)cc2)c1` displayed an IC50 of 760 nM.

Consider `CCOc1cccc(C(=O)Nc2cccc(CN3CCCN(Cc4cccc(O)c4)CC3)c2)c1`, for which the IC50 was determined as 1090 nM. This IC50 and that of the molecule before are within 1.5-fold of each other.

For `COc1c(C2CCN(CCCCNC(=O)c3ccc(C)c(-c4ccc(C(F)(F)F)cc4)c3)CC2)ccc2c1CCCC2`, the IC50 was 880 nM.

As to `COc1ccc(-c2nc(NC(=O)CS(=O)(=O)c3ccc(F)cc3)sc2C)cc1`, the 50% inhibitory concentration (IC50) came to 240 nM.

Regarding `COc1ccccc1NC(=O)c1cc(C(=O)c2cc(Cl)ccc2O)cn(-c2ccccc2OC)c1=O`, the IC50 stood at 940 nM. This IC50 is about 3.9-fold higher than that of the molecule before.

Molecule `CCCCSc1c(CNCCCCCCNCc2ccc3ccccc3c2SCCCC)ccc2ccccc12` yielded an IC50 of 1000 nM. This IC50 and that of the molecule before are within 1.5-fold of each other.

The molecule `CCOc1cc2ncnc(Nc3cc(Cl)c(Cl)c(Cl)c3)c2cc1OCC` had a half-inhibitory concentration (IC50) of 200 nM.

In turn, `CCCCCOc1ccc(NC2=CC(=O)C(=O)c3ccccc32)cc1` yielded an IC50 of 240 nM.

In turn, `Cc1nc(-c2cccc(C(=O)N(Cc3cncn3Cc3cccc(C(F)(F)F)c3)CC3CC3)c2)cs1` displayed an IC50 of 940 nM.

`COc1cc(CN2CCC(C(=O)Nc3ccc(-c4cccc(C)c4)cc3)CC2)ccc1O`: the IC50 amounted to 1120 nM.

Take `Cc1sc2ncnc(Sc3nnc(N)s3)c2c1C`: the IC50 was 400 nM. Compared with the last molecule, the IC50 is about 2.8-fold lower.

`CC(=O)N[C@@H]1c2cc(C(C)=O)ccc2OC(C)(C)[C@@H]1O`: the IC50 is 980 nM.

Regarding `Oc1cc(Nc2ccnc3cc(-c4ccc(CN5CCCCC5)o4)c(Cl)cc23)c(Cl)cc1F`, the IC50 worked out at 1260 nM.

`COc1ccccc1CN1CCC(NC(=O)c2ccc(-c3ccc(N(C)C)cc3)s2)CC1` yielded a concentration for half-maximal inhibition (IC50) of 960 nM.

The molecule `CNC(=O)c1ccccc1Nc1nc(Nc2ccc(N3CCOCC3)cc2)ncc1Cl` gave an IC50 of 730 nM.

Regarding `NC(=O)c1cccc(Nc2nccc(Nc3ccc(Oc4ccc5ccccc5c4)cc3)n2)c1`, the IC50 worked out at 810 nM.

`N#Cc1cccc(NC(=O)C2=C(CCc3ccc4c(c3)OCO4)NC(=O)NC2c2cccc(C#N)c2)c1` (configuration not stated) displayed an IC50 of 830 nM.

`Cc1cc(N2CC=CCC2)nc(/N=C(\N)Nc2ccc(Br)cc2)n1`: the IC50 was determined as 690 nM.

Turning to `CN(C)CCCN1C(=O)c2[nH]nc(-c3ccc(Cl)cc3O)c2C1c1ccc(Cl)cc1` (configuration not stated), the IC50 amounted to 760 nM.

Molecule `Cc1cccc2[nH]c(-c3ccc(-c4cccc(NC(=O)C(C)CN5CCN(C)CC5)c4)s3)nc12` (configuration not stated) showed an IC50 of 750 nM.

Regarding `COc1ccc2nccc([C@@H](O)CN3CCC(NCc4cc5ccccn5n4)CC3)c2c1`, the IC50 is 1570 nM.

Regarding `Cc1nn(-c2ccnc3cc(Cl)ccc23)c(C)c1C(=O)NCc1cc(Cl)cc(Cl)c1`, the IC50 came out at 870 nM.

`COc1ccc(CC(=O)NC(CCCN2CCC(c3ccccc3)CC2)c2ccc(Cl)c(Cl)c2)cc1OC` (configuration not stated) returned an IC50 of 1050 nM.

`O=S(=O)(c1c(Cl)cc(Cl)cc1Cl)N1CCCCC(c2ccc(Cl)cc2)=N1` showed an IC50 of 400 nM.

In turn, `COc1ccc(-c2cccc(NC(=O)c3cccc(Cl)c3)c2)cc1CN(C)CCN(C)C` returned a 50% inhibitory concentration (IC50) of 810 nM.

Molecule `CCCNS(=O)(=O)c1ccc(NC(=O)C(C)Oc2ccc([N+](=O)[O-])cc2)cc1` (configuration not stated) displayed an IC50 of 720 nM.

The molecule `NC(=O)CNC(=O)CCCN=C(N)N` had a 50% inhibitory concentration (IC50) of 170 nM. This IC50 lies about 4.2-fold lower than the previous one.

As to `NC1CCN(c2nc(NCCCc3ccc(O)cc3)nc(NCc3ccccc3-c3ccc(C(F)(F)F)cc3)n2)CC1`, the IC50 turned out to be 730 nM.

For `Cc1cccc2nc(C(=O)Nc3nc(CN4CCC(C)CC4)cs3)cn12`, the IC50 worked out at 760 nM.

With `CN(C)c1cccc(CCNCCc2c[nH]c3ccc(Cl)cc23)c1`, the IC50 came out at 440 nM.

With `CCC[C@@H]([C@@H](CC1CCCCC1)C(=O)N[C@@H](CCOC(=O)NCC)C(=O)Nc1nccs1)N(O)C=O`, the IC50 came to 80 nM.

For `CCc1sc(N2CCC(C)CC2)nc1C(=O)Nc1ccc(F)cc1C(F)(F)F`, the 50% inhibitory concentration (IC50) came to 1090 nM.

`Cc1nc2ccc([N+](=O)[O-])cc2c(=O)n1OCc1ccccc1` showed an IC50 of 210 nM. This IC50 is about 5.2-fold lower than that of the molecule before.

On to `CC(C)CNCc1cccc(-c2ccc(CN(C(=O)c3cccs3)C3CCN(Cc4ccccc4)CC3)cc2)c1`, for which the 50% inhibitory concentration (IC50) turned out to be 1010 nM.

As for `CC(C)Oc1cc2c(cc1NS(=O)(=O)c1ccc(-c3ccc(Cl)cc3)cc1F)CCN(C)CC2`, the IC50 is 920 nM. This IC50 and that of the molecule before are within 1.5-fold of each other.

In the case of `COc1ccccc1CNC(=O)C(=O)Nc1c(-c2ccccc2)[nH]c2ccccc12`, the IC50 amounted to 740 nM. This IC50 and that of the molecule before are within 1.5-fold of each other.

`Cc1cnc(C(=O)Nc2cccc(-c3ccc(-c4nc5ccc(C(F)(F)F)cc5[nH]4)s3)c2)cn1` came in with an IC50 of 700 nM.

For `O=c1cc(NCCCNC2CCc3c(Cl)cc(Cl)cc32)[nH]c2ccccc12` (configuration not stated), the half-maximal inhibitory concentration (IC50) is 930 nM.

As to `CN(C)c1ccc(C=C2SC(=Nc3ccccc3)N(c3ccccc3)C2=O)cc1[N+](=O)[O-]`, the IC50 was 780 nM.

Consider `CCOc1cc(C(=O)NCCN(CC)c2cccc(C)c2)ccc1-c1nc2ccc(Cl)cc2[nH]1`, for which the IC50 was 810 nM.

Turning to `O=C(C=Cc1ccc(-c2ccccc2)cc1)N1CCC(CCN2CCC(c3c[nH]c4ccccc34)CC2)CC1`, the IC50 worked out at 1120 nM.

With `O=C(Cn1c(=O)oc2ccccc21)N1CCC(n2c(=O)n(CCCN3CCOCC3)c3ccccc32)CC1`, the IC50 stood at 770 nM. This IC50 and that of the molecule before are within 1.5-fold of each other.

In turn, `O=C(Nc1ccccc1Cl)N(Cc1cc(Cl)cc(Cl)c1)CC(O)COc1ccc(Cl)c(F)c1` (configuration not stated) came in with an IC50 of 790 nM.

In turn, `CCCNCc1ccc(-c2ccc(CNC3Cc4ccccc4C3)cc2)nc1` came in with an IC50 of 850 nM.

`CCOC(=O)c1c(C)noc1Nc1cccc(C)c1C` gave an IC50 of 420 nM.

As for `Cc1ccc(C(C(=O)Nc2ccc(N3CCNCC3)c(Cl)c2)c2ccccc2)cc1` (configuration not stated), the IC50 came to 840 nM.

`CCN(CCN(C)C)Cc1ccc(-c2ccc(NS(=O)(=O)c3cccc(Cl)c3)cc2)cc1` had an IC50 of 520 nM.

In the case of `Fc1ccc(NC(=S)NN=Cc2ccccn2)cc1`, the IC50 came to 770 nM.

For the molecule `COc1ccccc1-n1c(-c2ccc3ccccc3c2)csc1=NC(=O)c1ccccc1`, the concentration for half-maximal inhibition (IC50) worked out at 200 nM.

For `COCCNC(=O)C1CCN(C(c2ccc(Cl)cc2)c2ccc(Cl)cc2)CC1`, the 50% inhibitory concentration (IC50) was found to be 550 nM.

`Cc1[nH]c(-c2ccc(F)cc2)cc1C(=O)NC1CCN(Cc2ccccc2)CC1` registered a 50% inhibitory concentration (IC50) of 1130 nM.

In the case of `c1ccc2c(CNc3nc(NCC4CCCCC4)nc4nc[nH]c34)cccc2c1`, the IC50 is 890 nM.

As for `CCc1cn2c3c(cc(C(=O)N[C@@H](Cc4ccccc4)[C@H](O)CNC4CCOCC4)cc13)N(C)S(=O)(=O)C2`, the IC50 was determined as 90 nM.

As to `CCCCc1cc(NCc2ccncc2)nc(Nc2ccc(OC)cc2)n1`, the IC50 turned out to be 1060 nM.

Consider `COc1cc(C)nc2ccc(NC(=O)Nc3ccc([N+](=O)[O-])cc3C)cc12`, for which the IC50 stood at 600 nM. Against the preceding molecule, the IC50 is about 1.8-fold lower.

In turn, `COc1cccc(NC(=O)Nc2ccc(C)c(-c3ccc(C(=O)Nc4ccncc4)cc3)c2)c1` returned an IC50 of 520 nM. The IC50 values of the last two molecules are within 1.5-fold of each other.

In the case of `O=C(Nc1cccc(CN2CCCN(CCc3ccccc3)CC2)c1)c1cc2ccccc2s1`, the IC50 came out at 1130 nM. This IC50 is about 2.2-fold higher than that of the molecule before.

In turn, `CC(=O)Nc1ccc(OCCN(Cc2ccccc2OC(F)(F)F)c2ccc(C(F)(F)F)c(C#N)c2)c(Cl)c1` showed an IC50 of 460 nM.

Turning to `O=C(Nc1ccc(C(=O)N2CCN(CCN3CCN(c4cccc(C(F)(F)F)c4)CC3)CC2)cc1)c1ccc(C(F)(F)F)cc1`, the IC50 turned out to be 690 nM.

For the molecule `O=C(/C=C/c1ccc(F)c(Br)c1)NCCCCCN1CCC(c2c[nH]c3ccccc23)CC1`, the half-inhibitory concentration (IC50) came out at 860 nM.

In turn, `CCc1cc(N2CCN(c3ccccc3F)CC2)nc(SCc2ccc(C(=O)NC3CC3)o2)n1` had an IC50 of 890 nM.

As to `NC1=NC(c2ccccc2)N(c2ccccc2)C(N)=N1` (configuration not stated), the IC50 came out at 290 nM.

On to `O=C(C=Cc1ccc(C(=O)Nc2ccc(C3=NCCN3)cc2)cc1)Nc1ccc(C2=NCCN2)cc1`, for which the IC50 was determined as 30 nM.

Turning to `CCCCCCCN(CCCCCCC)CCNc1cc(C)nc2ccccc12`, the half-inhibitory concentration (IC50) came out at 340 nM.

The molecule `CCOC(=O)c1ccc(NC(=O)N(Cc2ccc(-c3cccc(CN4CCNCC4)c3)cc2)C2CCN(Cc3ccccc3)CC2)cc1` displayed an IC50 of 750 nM. This IC50 lies about 2.2-fold higher than the previous one.

Take `O=C(c1cccc(-c2ccc(-c3nc4ccc(C(F)(F)F)cc4[nH]3)cc2)c1)N1CCCCC1CN1CCC(O)C1` (configuration not stated): the concentration for half-maximal inhibition (IC50) amounted to 470 nM.

In turn, `NC(=NCCc1ccc(Cl)cc1)c1ccc(Cl)c(Cl)c1` displayed an IC50 of 1100 nM.

As to `O=C(CNc1ccc(Cl)c(S(=O)(=O)N2CCCC2)c1)Nc1ccc(Br)cc1F`, the IC50 was found to be 320 nM.

In the case of `COc1ccc(Cn2c(Nc3cccc(C(F)(F)F)c3)nc3cc(C(=O)NCCN4CCCC4)ccc32)cc1Cl`, the IC50 was found to be 830 nM.

Consider `Cc1cccc2[nH]c(-c3ccc(-c4ccc(NC(=O)NCc5ccc(F)cc5)cc4)cc3)nc12`, for which the IC50 worked out at 1330 nM. This IC50 is about 1.6-fold higher than that of the molecule before.

Molecule `COc1ccc(CN2CCN(CCOC(c3ccc(F)cc3)c3ccc(F)cc3)CC2)c(O)c1` returned an IC50 of 730 nM.
